This is an account of results in patent US20110230476A1, “PI3 KINASE INHIBITORS AND USES THEREOF” (AVILA THERAPEUTICS, INC., priority 2009, published 2011).

Assay [1] relates to Phospho-Akt(Ser473). Nature of the assay: Dose response in SKOV3 cells as determined by Western blot. In kind it is cell-based. The following applies: Homo sapiens, SK-OV-3, 1 hr, Phospho-Akt normalized to total Akt, read-out: Immunoblot. How it is done: Dose Response in SKOV3 Cells as Determined by Western Blot
SKOV3 cells were plated in SKOV3 Growth Media (DMEM supplemented with 10% FBS and pen/strep) at a density of 4×10^5 cells per well of 12 well plates. Twenty four hours later the media was removed and replaced with 1 ml media containing test compound and 0.1% DMSO and cells were returned to the incubator for 1 hr. At the end of the hour, the media was removed and the cells were washed with PBS, then lysed and scraped into 30 ul of Cell Extraction Buffer (Biosource, Camarillo, Calif.) plus Complete Protease Inhibitor and PhosStop Phosphatase Inhibitor (Roche, Indianapolis, Ind.).
Cell debris was spun down at 13,000×g for 1 minute and the supernatant was taken as the cell lysate. Protein concentration of the lysate was determined by BCA Assay (Pierce Biotechnology, Rockford, Ill.) and 50 ug of protein was loaded per well onto a NuPAGE Novex 4-12% Bis-Tris gel (Invitrogen, Carlsbad, Calif.) then transferred to Immobilon PVDF-FL (Millipore, Billerica, Mass.).
The blot was blocked in Odyssey Blocking Buffer (Li-Cor Biosciences, Lincoln, Nebr.) for 1 hr then incubated overnight at 4° C. with mouse anti-Akt (#2920) and rabbit anti-Phospho-Akt(Ser473) (#9271)(Cell Signaling Technology, Boston, Mass.) antibodies, both diluted 1:1000 in PBS/Odyssey Buffer (1:1)+0.1% Tween-20. The blots were washed 3 times 5 minutes in PBS+0.2% Tween-20 then incubated for 1 hr at room temperature with fluorescently labeled secondary antibodies (Li-Cor) diluted 1:10000 in PBS/Odyssey Buffer (1:1)+0.1% Tween-20.
The blots were washed 2 times for 5 minutes in PBS+0.2% Tween-20, once in distilled water, then scanned on an Odyssey machine (Li-Cor). Band intensity was determined using the Odyssey software and Phopho-Akt signal was normalized to total Akt within samples, then expressed as a percentage of the untreated Phospho-Akt signal.
For orientation: A western blot detects proteins with antibodies after separation by electrophoresis.

For the next assay, the target named is T1, PI3Kα (p110α/p85α) (Homo sapiens, UniProt P42336).
T1 construct: purchased BPS Bioscience (San Diego, Calif.) or Millipore (Billerica, Mass.)
T1 sequence (P42336 whole entry): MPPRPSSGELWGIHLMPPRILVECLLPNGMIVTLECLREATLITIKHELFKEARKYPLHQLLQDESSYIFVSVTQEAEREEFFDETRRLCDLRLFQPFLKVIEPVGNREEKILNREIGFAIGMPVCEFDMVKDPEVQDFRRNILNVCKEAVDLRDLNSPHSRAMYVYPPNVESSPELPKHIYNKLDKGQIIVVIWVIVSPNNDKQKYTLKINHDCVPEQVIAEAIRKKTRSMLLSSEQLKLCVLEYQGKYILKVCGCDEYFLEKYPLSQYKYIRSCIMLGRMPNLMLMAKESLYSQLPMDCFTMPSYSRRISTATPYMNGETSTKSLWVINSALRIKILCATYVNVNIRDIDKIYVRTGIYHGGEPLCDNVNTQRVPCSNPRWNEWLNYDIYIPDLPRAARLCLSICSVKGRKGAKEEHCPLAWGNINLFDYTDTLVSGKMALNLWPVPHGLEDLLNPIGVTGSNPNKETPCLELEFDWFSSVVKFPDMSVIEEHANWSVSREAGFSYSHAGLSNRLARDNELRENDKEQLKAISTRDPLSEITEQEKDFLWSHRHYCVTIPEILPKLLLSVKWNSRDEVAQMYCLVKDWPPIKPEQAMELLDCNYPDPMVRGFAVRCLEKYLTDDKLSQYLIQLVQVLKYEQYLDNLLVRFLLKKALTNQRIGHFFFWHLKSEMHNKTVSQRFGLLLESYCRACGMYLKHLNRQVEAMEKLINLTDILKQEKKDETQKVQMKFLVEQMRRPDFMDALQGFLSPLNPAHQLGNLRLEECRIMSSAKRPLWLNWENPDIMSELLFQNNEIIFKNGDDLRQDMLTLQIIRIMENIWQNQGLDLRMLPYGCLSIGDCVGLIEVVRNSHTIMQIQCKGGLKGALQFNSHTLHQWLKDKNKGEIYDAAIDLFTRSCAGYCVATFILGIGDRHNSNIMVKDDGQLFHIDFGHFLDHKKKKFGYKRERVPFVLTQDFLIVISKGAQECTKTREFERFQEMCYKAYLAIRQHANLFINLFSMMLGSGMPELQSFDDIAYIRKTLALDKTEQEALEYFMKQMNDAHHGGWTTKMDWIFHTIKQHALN
T1 sequence (P27986 whole entry partner): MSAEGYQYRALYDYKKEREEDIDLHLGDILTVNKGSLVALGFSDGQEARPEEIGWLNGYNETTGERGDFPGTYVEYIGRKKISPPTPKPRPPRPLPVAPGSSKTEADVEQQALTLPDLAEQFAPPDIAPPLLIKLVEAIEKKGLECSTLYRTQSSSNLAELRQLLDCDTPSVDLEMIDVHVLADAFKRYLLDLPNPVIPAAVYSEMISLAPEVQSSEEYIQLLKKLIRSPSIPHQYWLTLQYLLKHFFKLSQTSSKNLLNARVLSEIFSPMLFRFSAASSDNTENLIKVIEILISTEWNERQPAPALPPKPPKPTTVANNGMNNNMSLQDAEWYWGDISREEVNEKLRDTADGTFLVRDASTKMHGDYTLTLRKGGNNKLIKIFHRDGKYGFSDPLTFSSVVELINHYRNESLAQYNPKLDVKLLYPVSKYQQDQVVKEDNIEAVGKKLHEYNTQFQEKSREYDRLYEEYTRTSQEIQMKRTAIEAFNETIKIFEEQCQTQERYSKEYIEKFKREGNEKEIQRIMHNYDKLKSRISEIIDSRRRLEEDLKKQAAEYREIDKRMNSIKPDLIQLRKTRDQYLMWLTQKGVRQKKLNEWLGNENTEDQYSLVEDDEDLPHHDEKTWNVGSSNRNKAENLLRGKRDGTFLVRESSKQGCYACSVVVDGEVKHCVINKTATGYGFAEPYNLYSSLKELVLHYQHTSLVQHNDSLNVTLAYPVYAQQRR
Nature of the assay: HTRF assay, potency against active PI3Kα. In kind it is biochemical. The following applies: HTRF; [ATP]=50 μM, [di-C8-PIP2]=10 μM; 30 min pre-incubation; read-out: PI3Kα Inhibition. Summed up:
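IC50 came from a variable-slope fit of % inhibition, calculated from the HTRF emission ratio relative to wells with and without enzyme. Reactions with the active enzyme complex ran 30-60 minutes at 25 °C after ATP addition before stop and detection reagents.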
(In TR-FRET formats the signal depends on donor and acceptor labels being close together.)

Assay [2] concerns Phospho-Akt(Ser473). Kind of assay: Dose response in SKOV3 cells as determined by in-cell Western. The settings on record: Homo sapiens, SK-OV-3; SKOV3 cells, 1 hr; read-out: pAKT Inhibition in cell Western. Type of assay: cell-based. In a few lines:
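SKOV3 cells treated with compound for 1 hr, then formaldehyde-fixed, permeabilised and stained overnight for phospho-Akt(Ser473) with anti-tubulin as a reference. Infrared secondary antibodies read at 680 and 800 nm channels by in-cell Western imaging.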

A further assay deals with T2, PI3Kγ (p120γ) (Homo sapiens, UniProt P48736).
T2 construct: purchased BPS Bioscience (San Diego, Calif.) or Millipore (Billerica, Mass.)
T2 sequence (P48736 whole entry): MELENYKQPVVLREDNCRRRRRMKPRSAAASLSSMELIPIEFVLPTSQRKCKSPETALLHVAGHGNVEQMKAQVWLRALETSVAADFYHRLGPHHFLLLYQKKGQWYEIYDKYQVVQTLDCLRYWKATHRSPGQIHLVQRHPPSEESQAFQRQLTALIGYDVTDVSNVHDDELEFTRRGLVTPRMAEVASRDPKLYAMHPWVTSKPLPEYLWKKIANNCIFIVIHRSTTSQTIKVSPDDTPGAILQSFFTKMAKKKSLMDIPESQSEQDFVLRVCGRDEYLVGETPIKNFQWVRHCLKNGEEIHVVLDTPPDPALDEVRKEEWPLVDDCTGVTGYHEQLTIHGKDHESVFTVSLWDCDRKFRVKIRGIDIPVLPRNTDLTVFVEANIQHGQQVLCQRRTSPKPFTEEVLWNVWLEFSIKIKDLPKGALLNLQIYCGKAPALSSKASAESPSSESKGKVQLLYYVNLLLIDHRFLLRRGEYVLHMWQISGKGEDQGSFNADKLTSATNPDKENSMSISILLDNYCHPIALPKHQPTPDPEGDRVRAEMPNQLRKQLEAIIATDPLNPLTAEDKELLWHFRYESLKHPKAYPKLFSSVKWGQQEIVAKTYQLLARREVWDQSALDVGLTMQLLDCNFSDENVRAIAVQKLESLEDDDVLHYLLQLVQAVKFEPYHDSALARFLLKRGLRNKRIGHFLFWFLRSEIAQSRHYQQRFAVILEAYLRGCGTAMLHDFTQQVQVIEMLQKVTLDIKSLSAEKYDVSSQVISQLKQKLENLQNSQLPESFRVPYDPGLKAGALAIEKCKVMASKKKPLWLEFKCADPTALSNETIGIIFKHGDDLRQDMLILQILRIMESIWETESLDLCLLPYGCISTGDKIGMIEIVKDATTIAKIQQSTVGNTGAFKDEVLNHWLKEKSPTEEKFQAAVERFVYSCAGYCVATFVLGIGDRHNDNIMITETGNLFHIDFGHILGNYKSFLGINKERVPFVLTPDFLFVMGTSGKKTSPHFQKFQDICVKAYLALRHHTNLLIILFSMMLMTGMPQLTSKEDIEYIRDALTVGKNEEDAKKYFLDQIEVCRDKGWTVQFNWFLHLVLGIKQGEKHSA
Nature of the assay: HTRF assay, potency against active PI3Kγ. Type of assay: biochemical. The settings on record: [ATP]=50 μM, [di-C8-PIP2]=10 μM, 30 min pre-incubation, read-out: PI3Kγ Inhibition. The source says: Homogeneous Time Resolved Fluorescence (HTRF) Assay Protocol for Potency Assessment Against the Active Forms of PI3Kα, PI3Kβ, and PI3Kγ
The protocol below describes an end-point, competition-binding HTRF assay used to measure inherent potency of test compounds against active PI3Kα (p110α/p85α), PI3Kβ (p110β/p85α), and PI3Kγ (p120γ) enzymes. The mechanics of the assay platform are best described by the vendor (Millipore, Billerica, Mass.) on their website at the following URL: www.millipore.com/coa/tech1/74jt4z.
Briefly, Stop solution (Stop A, #33-007 and Stop B, #33-009; 3:1 ratio) and Detection Mix (from DMC, #33-015 with DMA, #33-011 and DMB, #33-013; 18:1:1 ratio) were prepared as recommended by the manufacturer about 2 hrs prior to use. Additionally, 1× reaction buffer (from 4× buffer stock# 33-003), 1.4× stocks of PI3Kα, PI3Kβ, and PI3Kγ enzymes from BPS Bioscience (San Diego, Calif.) or Millipore (Billerica, Mass.) with di-C8-PIP2 lipid substrate (#33-005), and a 4×ATP solution (#A7699 Sigma/Aldrich; St. Louis, Mo.) were prepared in 1× reaction buffer. 15 μL of PI3K enzymes and lipid substrate mix were pre-incubated in a Corning (#3573) 384-well, black, non-treated microtiter plate (Corning, N.Y.) for 30 min at 25° C. with a 0.5 μL volume of 50% DMSO and serially diluted compounds prepared in 50% DMSO. Lipid kinase reactions were started with the addition of 5 μL of ATP solution, mixed for 15 sec on a rotary plate shaker and incubated for 30-60 minutes at 25° C. Next, reactions were stopped with a 5 μL addition of Stop solution immediately followed by a 5 μL volume of Detection Mix. Stopped reactions were equilibrated for 1 and 18 hrs at room temperature and read in a Synergy^4 plate reader from BioTek (Winooski, Vt.) at λex330-80/λem620-35 and λem665-7.5. At the conclusion of each assay, the HTRF ratio from fluorescence emission values for each well was calculated and % Inhibition determined from averaged controls wells (+/−PI3K enzyme). % Inhibition values for each compound were then plotted against inhibitor concentration to estimate IC50 from log [Inhibitor] vs Response, Variable Slope model in GraphPad Prism from GraphPad Software (San Diego, Calif.).
[Reagent] used in optimized protocol: • [p110α/p85α]=0.5-1.5 nM, [ATP]=50 μM, [di-C8—PIP2]=10 μM • [p110β/p85α]=0.75 nM, [ATP]=50 μM, [di-C8—PIP2]=10 μM • [p120γ]=2-2.5 nM, [ATP]=50 μM, [di-C8—PIP2]=10 μM • (ATP KMapp for both enzymes was estimated to be 40-70 μM)

In a further assay the test system is PI3K. Kind of assay: PI3K HCT116 cellular assay (Western blot). In kind it is cell-based. The following applies: Homo sapiens, HCT-116, HCT116 colon cancer cells, 1 hour incubation, read-out: PI3K Inhibition. Here is the method:
PI3K HCT116 Cellular Assay
Selected compounds were assayed in HCT116 colon cancer cells. […] Cells were then washed with PBS, lysed and the protein lysates were then recovered and analyzed by Western blot.

Regarding `C=CC(=O)Nc1ccc(C(=O)N2CC=C(c3cc4nc(-c5cnc(N)nc5)nc(N5CCOCC5)c4s3)CC2)cc1` [II-a-156, N-(4-(4-(2-(2-aminopyrimidin-5-yl)-4-morpholinothieno[3,2-d]pyrimidin-6-yl)-1,2,3,6-tetrahydropyridine-1-carbonyl)phenyl)acrylamide], the EC50 in the assay on Phospho-Akt(Ser473) [1] was not above 10 nM. Further, at PI3Kα (p110α/p85α), the IC50 was 10 to 100 nM.
Take `C=CC(=O)Nc1ccc(COCc2cc3nc(-c4cnc(N)nc4)nc(N4CCOCC4)c3s2)cc1` [II-a-173, N-(4-(((2-(2-aminopyrimidin-5-yl)-4-morpholinothieno[3,2-d]pyrimidin-6-yl)methoxy)methyl)phenyl)acrylamide]: the EC50 in the assay with Phospho-Akt(Ser473) [1] was not above 10 nM; in the assay with Phospho-Akt(Ser473) [2] it was 10 to 100 nM. On PI3Kα (p110α/p85α), the IC50 is 100 to 1000 nM.
In the case of `CC(C)=CC(=O)CCCC(=O)N1CC=C(c2cc3nc(-c4cnc(N)nc4)cc(N4CCOCC4)c3s2)CC1` [II-g-3, 1-(4-(5-(2-aminopyrimidin-5-yl)-7-morpholinothieno[3,2-b]pyridin-2-yl)-5,6-dihydropyridin-1(2H)-yl)-7-methyloct-6-ene-1,5-dione], the results for the EC50 with Phospho-Akt(Ser473) [1] and with Phospho-Akt(Ser473) [2] were 100 to 1000 nM and not above 10 nM, respectively. Moreover, the IC50 at PI3Kα (p110α/p85α) and at PI3Kγ (p120γ) was 100 to 1000 nM throughout.
Turning to `C=CC(=O)Nc1ccc(CCNC(=O)c2cc3nc(-c4cnc(N)nc4)nc(N4CCOCC4)c3s2)cc1` [II-a-154, N-(4-acrylamidophenethyl)-2-(2-aminopyrimidin-5-yl)-4-morpholinothieno[3,2-d]pyrimidine-6-carboxamide], the EC50 in the assay on Phospho-Akt(Ser473) [1] was not above 10 nM. For the same compound, the IC50 on PI3Kα (p110α/p85α) was 10 to 100 nM.
Regarding `C=CC(=O)Nc1ccc(CC(=O)N2CCC(n3ncc4c(N5CCOCC5)nc(-c5cnc(N)nc5)nc43)CC2)cc1` [VII-13, N-(4-(2-(4-(6-(2-aminopyrimidin-5-yl)-4-morpholino-1H-pyrazolo[3,4-d]pyrimidin-1-yl)piperidin-1-yl)-2-oxoethyl)phenyl)acrylamide], the EC50 in the assay with Phospho-Akt(Ser473) [1] and in the assay with Phospho-Akt(Ser473) [2] was 10 to 100 nM throughout. Besides, the IC50 on PI3Kα (p110α/p85α) was in the range of 100 to 1000 nM.
Regarding `C/C=C/C(=O)CCC(=O)NCCS(=O)(=O)N1CCN(Cc2cc3nc(-c4cccc(O)c4)nc(N4CCOCC4)c3s2)CC1` [II-a-26, (E)-N-(2-(4-((2-(3-hydroxyphenyl)-4-morpholinothieno[3,2-d]pyrimidin-6-yl)methyl)piperazin-1-ylsulfonyl)ethyl)-4-oxohept-5-enamide], the EC50 with PI3K lay in the range of 20 to 100 nM. In addition, the IC50 on PI3Kα (p110α/p85α) was in the range of 10 to 100 nM; on PI3Kγ (p120γ), 100 to 1000 nM.
Turning to `C=CC(=O)Nc1ccc(OCc2cc3nc(-c4cnc(N)nc4)nc(N4CCOCC4)c3s2)cc1` [II-a-172, N-(4-((2-(2-aminopyrimidin-5-yl)-4-morpholinothieno[3,2-d]pyrimidin-6-yl)methoxy)phenyl)acrylamide], in the assay on Phospho-Akt(Ser473) [1], the EC50 is not above 10 nM. The IC50 at PI3Kα (p110α/p85α) lay within 100 to 1000 nM.
For `C=CC(=O)Nc1ccc(CN(C)Cc2cc3nc(-c4cnc(N)nc4)nc(N4CCOCC4)c3s2)cc1` [II-a-176, N-(4-((((2-(2-aminopyrimidin-5-yl)-4-morpholinothieno[3,2-d]pyrimidin-6-yl)methyl)(methyl)amino)methyl)phenyl)acrylamide] the same measures were 10 to 100 nM and 10 to 100 nM.
For `C=CC(=O)Nc1ccc(CCNC(=O)c2cc(-c3cnc(N)nc3)nc(N3CCOCC3)c2)cc1` [XII-2, N-(4-acrylamidophenethyl)-2-(2-aminopyrimidin-5-yl)-6-morpholinoisonicotinamide] the same measures were not below 1000 nM and 10 to 100 nM.
`C/C=C/C(=O)CCCC(=O)N1CCN(Cc2cc3nc(-c4cccc5[nH]ncc45)nc(N4CCOCC4)c3s2)CC1` [II-a-22, (E)-1-(4-((2-(1H-indazol-4-yl)-4-morpholinothieno[3,2-d]pyrimidin-6-yl)methyl)piperazin-1-yl)oct-6-ene-1,5-dione]: the EC50 in the assay on Phospho-Akt(Ser473) [1] was in the range of 10 to 100 nM. Besides, the IC50 at PI3Kα (p110α/p85α) is 10 to 100 nM; on PI3Kγ (p120γ) it was more than 1000 nM.
On to `C/C=C/C(=O)CCC(=O)N1CCC(C#Cc2cc3nc(-c4cccc(O)c4)nc(N4CCOCC4)c3s2)CC1` [II-a-89, (E)-1-(4-((2-(3-hydroxyphenyl)-4-morpholinothieno[3,2-d]pyrimidin-6-yl)ethynyl)piperidin-1-yl)hept-5-ene-1,4-dione], for which the EC50 in the assay with Phospho-Akt(Ser473) [1] was 10 to 100 nM. Also, the IC50 at PI3Kα (p110α/p85α) is less than 10 nM.
On to `O=C(/C=C/c1ccccc1)CCC(=O)N1CCN(C(=O)c2cc3nc(-c4cccc5[nH]ncc45)nc(N4CCOCC4)c3s2)CC1` [II-a-142, (E)-1-(4-(2-(1H-indazol-4-yl)-4-morpholinothieno[3,2-d]pyrimidine-6-carbonyl)piperazin-1-yl)-6-phenylhex-5-ene-1,4-dione], for which the EC50 in the assay on Phospho-Akt(Ser473) [1] and in the assay with Phospho-Akt(Ser473) [2] was 10 to 100 nM each time. Besides, the IC50 at PI3Kα (p110α/p85α) is less than 10 nM.
Take `C=CC(=O)NCc1cccc(-c2cc3nc(-c4cccc(O)c4)nc(N4CCOCC4)c3s2)c1` [II-a-64, N-(3-(2-(3-hydroxyphenyl)-4-morpholinothieno[3,2-d]pyrimidin-6-yl)benzyl)acrylamide]: the EC50 with Phospho-Akt(Ser473) [1] lay in the range of 10 to 100 nM. Moreover, at PI3Kα (p110α/p85α), the IC50 is less than 10 nM.
On to `CC(C)=CC(=O)CCC(=O)NCCS(=O)(=O)N1CCN(Cc2cc3nc(-c4cccc(O)c4)nc(N4CCOCC4)c3s2)CC1` [II-a-28, N-(2-(4-((2-(3-hydroxyphenyl)-4-morpholinothieno[3,2-d]pyrimidin-6-yl)methyl)piperazin-1-ylsulfonyl)ethyl)-6-methyl-4-oxohept-5-enamide], for which the EC50 with PI3K fell in the range of 20 to 100 nM. Further, the IC50 on PI3Kα (p110α/p85α) and at PI3Kγ (p120γ) was 100 to 1000 nM each time.
In the case of `CC(C)=CC(=O)CCCC(=O)N1CCC(c2cc3nc(-c4cnc(N)nc4)cc(N4CCOCC4)c3s2)CC1` [II-g-6, 1-(4-(5-(2-aminopyrimidin-5-yl)-7-morpholinothieno[3,2-b]pyridin-2-yl)piperidin-1-yl)-7-methyloct-6-ene-1,5-dione], in the assay with Phospho-Akt(Ser473) [1], the EC50 lay in the range of 100 to 1000 nM. Also, the IC50 on PI3Kα (p110α/p85α) is 100 to 1000 nM.
